Data taken from patent US20240309018A1, “THIAZOLE-LACTAM-SPIROHETEROCYCLIC COMPOUNDS AND APPLICATIONS THEREOF” (D3 BIO (WUXI) CO., LTD, priority 2021, published 2024).

Experiments:
[1] = target: hERG potassium channel (Homo sapiens (Human), UniProt Q12809); assay: hERG assay (automated patch-clamp, CHO-hERG cells); format: cell-based; details: Qpatch, highest assayed concentration 40 μM
Protocol: A fully automated patch-clamp method was used to assay the effect of the compound on hERG potassium channel (human Ether-a-go-go Related Gene potassium channel) current.
CHO-hERG cells were cultured in a 175 cm^2 culture flask. When cells grew to a density of 60˜80%, the culture medium was removed. Cells were washed once with 7 mL of PBS (Phosphate Buffered Saline), and then 3 mL of Detachin was added for digestion. After the digestion was completed, 7 mL of culture medium was added for neutralization, and then the mixture was centrifuged. The supernatant was aspirated, and then 5 mL of culture medium was added to resuspend the cells and ensure that the cell density was 2˜5×10^6/mL.
Extracellular solution formulation (mM): 140 NaCl, 5 KCl, 1 CaCl2), 1.25 MgCl2, 10 HEPES and 10 Glucose: the formulation was adjusted to pH of 7.4 with NaOH. […]
The single-cell high-impedance sealing and whole-cell pattern formation processes were all automatically performed by a Qpatch instrument. […] This voltage stimulation was applied every 15 seconds, and recorded for 2 minutes. The extracellular solution was then given, and recorded for 5 minutes. […]
Assay data were analyzed by GraphPad Prism 5.0 software. […]
The inhibitory effect of Cisapride with multiple concentrations on the hERG channel was measured as a positive control.

[2] = In vivo PK study in SD rats; design: species or system rat; details: male SD rats
Protocol: Male SD rats were used as assay animals. After a single administration, the plasma concentration of the compound was measured and the pharmacokinetic behavior was evaluated.
Six healthy adult male SD rats were selected, wherein 3 rats were in an intravenous injection group and 3 rats were in an oral group. The vehicle in the intravenous injection group was 5% DMSO+95% (20% HP-β-CD). The compound to be assayed was mixed with an appropriate amount of vehicle for intravenous injection, vortexed and sonicated to prepare a clear solution of 0.2 mg/mL. The clear solution was filtered by a microporous membrane, and then ready for use. The vehicle in the oral group was 5% DMSO+95% (20% HP-β-CD). The compound to be assayed was mixed with the vehicle, vortexed and sonicated to prepare a solution of 1 mg/mL. SD rats were administered 1 mg/kg intravenously or 10 mg/kg orally, and then whole blood was collected for a certain period. Plasma was prepared. The drug concentration was analyzed by LC-MS/MS method, and the pharmacokinetic parameters were calculated by Phoenix WinNonlin software (Pharsight, USA).

[3] = system: canine plasma albumin; assay: Plasma protein binding (ultracentrifugation), canine; format: in vitro ADME; further: tested at 0.2 µM
Protocol: (§1) The binding degree of the assay compound to human/mouse/rat/canine/monkey plasma albumin was studied.
(§2) • 1) Matrix preparation: on the day of the assay, plasma was thawed in cold water and centrifuged at 3220 rpm for 5 min to remove all clots. The pH of the resulting plasma was measured and adjusted to 7.4±0.1 using 1% phosphoric acid or IN sodium hydroxide as needed. • 2) Dilution procedure for the assay compound: the assay compound was dissolved in dimethyl sulfoxide (DMSO) to prepare stock solutions with concentrations of 10 mM and 2 mM, respectively. A 40 μM working solution was prepared by diluting 2 μL of stock solution (2 mM) with 98 μL of DMSO. A 400 μM working solution of the control compound was prepared by diluting 10 μL of stock solution with 240 μL of DMSO. The working solution of the compound (5 μL) was mixed well with a blank matrix (995 μL) at a ratio of 1:200 to prepare a loading matrix.
(§3) • a) An equal volume of 30 μL of loading matrix (n=2) was transferred to a sample collection plate to prepare a time 0 (TO) sample for residue determination. The sample was immediately matched with the corresponding blank buffer to a final volume of 60 μL, and the volume ratio of plasma to buffer in each well was 1:1. […] The mixture was centrifuged at 4000 rpm for 20 min and 100 μL of supernatant from each sample was analyzed by LC-MS/MS.

[4] = system: rat plasma albumin; assay: Plasma protein binding (ultracentrifugation), rat; format: in vitro ADME; further: tested at 0.2 µM
Protocol: as §1, §2, §3

Chain of hERG potassium channel (Q12809 whole entry): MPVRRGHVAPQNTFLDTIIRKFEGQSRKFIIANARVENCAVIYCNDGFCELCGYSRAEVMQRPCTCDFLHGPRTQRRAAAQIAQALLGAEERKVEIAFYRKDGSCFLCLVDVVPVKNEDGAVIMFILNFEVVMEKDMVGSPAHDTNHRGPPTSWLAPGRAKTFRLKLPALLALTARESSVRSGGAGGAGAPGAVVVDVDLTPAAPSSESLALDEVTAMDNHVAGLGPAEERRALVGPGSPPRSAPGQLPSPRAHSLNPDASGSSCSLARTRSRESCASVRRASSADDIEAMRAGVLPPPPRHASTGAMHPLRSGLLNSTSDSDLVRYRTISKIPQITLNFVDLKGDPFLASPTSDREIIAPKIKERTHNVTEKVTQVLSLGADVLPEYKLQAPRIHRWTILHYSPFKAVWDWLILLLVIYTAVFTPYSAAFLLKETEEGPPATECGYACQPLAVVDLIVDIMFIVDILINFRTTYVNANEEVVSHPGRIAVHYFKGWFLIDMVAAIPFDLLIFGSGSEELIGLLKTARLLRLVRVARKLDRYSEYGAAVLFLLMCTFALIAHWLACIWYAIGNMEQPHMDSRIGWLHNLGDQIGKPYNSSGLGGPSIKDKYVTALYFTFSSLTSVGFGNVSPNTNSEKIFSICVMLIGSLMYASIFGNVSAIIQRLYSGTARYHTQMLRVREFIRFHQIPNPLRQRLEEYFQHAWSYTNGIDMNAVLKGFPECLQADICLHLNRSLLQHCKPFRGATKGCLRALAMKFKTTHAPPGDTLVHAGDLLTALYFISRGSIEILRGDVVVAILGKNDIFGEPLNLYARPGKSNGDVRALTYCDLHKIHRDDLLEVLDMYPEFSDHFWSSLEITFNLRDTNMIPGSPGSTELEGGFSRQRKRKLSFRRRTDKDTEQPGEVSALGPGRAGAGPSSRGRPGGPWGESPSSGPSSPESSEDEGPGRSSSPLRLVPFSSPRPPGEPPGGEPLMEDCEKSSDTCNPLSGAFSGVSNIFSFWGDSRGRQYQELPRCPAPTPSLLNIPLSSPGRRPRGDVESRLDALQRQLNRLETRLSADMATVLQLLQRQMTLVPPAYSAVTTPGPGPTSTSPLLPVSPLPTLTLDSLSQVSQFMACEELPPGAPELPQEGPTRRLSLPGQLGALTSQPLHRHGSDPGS

## Cc1cccc(CN2C(=O)c3nc(-c4nc(Nc5ccnn5C)ncc4C)sc3C23COC3)n1 [WX001]
[1]
  IC50: > 40 µM
[2]; 10 mg/kg orally, AUCPO/Dose
  Oral DNAUC: 1445.79 nM · h/mpk
[2]; rat, plasma, intravenous, 1 mg/kg intravenously or 10 mg/kg orally
  clearance: 13.4 mL/min/kg
[2]; rat, plasma, intravenous, 1 mg/kg intravenously or 10 mg/kg orally, read-out: Vdss
  Vd: 1.08 L/kg
[2]; rat, plasma, 1 mg/kg intravenously or 10 mg/kg orally
  half-life: 226 min
[2]; rat, plasma, 1 mg/kg intravenously, 10 mg/kg orally, oral bioavailability
  bioavailability: 49%
[2]; rat, single dose, 1 mg/kg intravenously or 10 mg/kg orally, plasma
  Cmax: 2500 nM
[3]
  Plasma protein binding rate (unbound %): 14.3%
[4]
  Plasma protein binding rate (unbound %): 8.4%
